# Experimental data: article PMC11162475, “Rule-based omics mining reveals antimicrobial macrocyclic peptides against drug-resistant clinical isolates” (Nature Communications, 2024)
# Tests used:
# [1] = system: Micrococcus luteus DSM1790; assay: Kirby-Bauer assay, zone of inhibition (agar well); type: cell-based; conditions: M. luteus DSM1790; 10 μL DMSO stock (3.2 or 1.6 mg/mL) in well of soft LB agar, 30 °C, 20 h
# Experimental: The stock solution of massatide A (1) and B (1a) 3.2 mg/mL were prepared in DMSO. 40 μL overnight culture of Micrococcus luteus DSM1790 was added to 20 mL soft Luria-Bertani agar (1% agar), and then poured into a plate. 10 μL tip was used to make two wells on the plate. 10 μL massatide A (1) or B (1a) solution was added in one of the wells, while in the other well, 10 μL DMSO was added as a negative control. The plates were incubated at 30 °C for 20 h to observe the zone of inhibition. Staphylococcus aureus ATCC25923 was also used to observe the inhibition zone using a similar method. The only difference is incubating at 37 °C. Stock solutions of sistertide A1, kebanetide A1 and A2 were 3.2 mg/mL, 1.6 mg/mL and 1.6 mg/mL, respectively. The method to observe the activity of these compounds individually was the same as that of massatide.
# [2] = system: Staphylococcus aureus ATCC25923; assay: microbe, parasite or virus in culture; type: cell-based; conditions: ATCC25923, 20 h
# Experimental: (§1) For MIC determination, Staphylococcus aureus ATCC25923, Bacillus subtilis 168, Micrococcus luteus DSM1790, Enterococcus faecalis OG1RF, Enterococcus faecium MCC2763, Escherichia coli DH5α and Pseudomonas aeruginosa PAO1 were used as indicator strains. Nisin and vancomycin were used as positive controls. A dilution series of massatide A, massatide B, vancomycin (16, 8, 4, 2, 1, 0.5, 0.25, 0.125, 0.0625, 0.0313 μg/mL) and sistertide A1, kebanetide A1, kebanetide A2, nisin (64, 32, 16, 8, 4, 2, 1, 0.5, 0.25, 0.125 μg/mL) were prepared in 96-well plate from 1–10th column. The indicator strains were added to the compound-containing well. The indicator strain culture with no antibiotics was prepared in the 11th column. The 12th column was filled with 200 μL empty MHB medium. The 96-well plate was incubated at 37 °C for 20 h (30 °C for M. luteus and B. subtilis). The OD600 was detected on MULTISKAN Sky (Thermo Scientific) and MIC values were determined. The MIC values of clinical isolates were determined by Sichuan Primed Shines Bio-tech Co., Ltd. (China) following similar protocol. Levofloxacin was used as a positive control.
# [3] = system: Enterococcus faecium MCC2763; assay: microbe, parasite or virus in culture; type: cell-based; conditions: MCC2763, 20 h
# Experimental: as §1
# Bacillus subtilis 168 = assay: microbe, parasite or virus in culture; type: cell-based
# Experimental: as §1
# [4] = system: Micrococcus luteus DSM1790; assay: microbe, parasite or virus in culture; type: cell-based; conditions: DSM1790, 20 h
# Experimental: as §1
# [5] = system: Enterococcus faecalis OG1RF; assay: microbe, parasite or virus in culture; type: cell-based; conditions: OG1RF, 20 h
# Experimental: as §1
# [6] = system: Pseudomonas aeruginosa PAO1; type: cell-based; conditions: PAO1, 20 h
# Experimental: as §1
# Escherichia coli DH5α = type: cell-based; conditions: DH5α, 20 h
# Experimental: as §1
# S. aureus ATCC 25923 [7] = assay: Lysis of S. aureus culture; type: cell-based, Staphylococcus aureus; conditions: S. aureus ATCC 25923 culture OD600 1.0, 10×MIC, 24 h
# Experimental: Growth kinetics of S. aureus
# Massatide A or B was prepared in a 96-well plate at the concentration of 8×MIC, 4×MIC, 2×MIC, 1×MIC and 0.5×MIC , respectively. The MHB medium with no compound was used as a control. Then, the overnight culture of S. aureus ATCC 25923 cells was added to the medium at 1:1,000. The plate was incubated with shaking in SpectraMax iD3 (MOLECULAR DEVICES) at 30 ℃. OD600 was measured every 30 min for 36 hours. To analyze the lysis, 1mL of S. aureus ATCC 25923 culture (OD600 1.0) was treated with massatide A or vancomycin (10×MIC) for 24h. An untreated sample was used as a negative control. […]
# (§2) Experiments were performed in triplicate. […]
# S. aureus ATCC 25923 [8] = conditions: 25 days of serial passaging, control antibiotic
# Experimental: was used as a negative control.
# Experiments were performed in triplicate.
# The experiment was performed in triplicate.
# S. aureus ATCC 25923 [9] = assay: Time-dependent killing assay; type: cell-based, Staphylococcus aureus; conditions: time-killing assay
# Experimental: Time-dependent killing assay
# An overnight culture of S. aureus ATCC 25923 cells was diluted at 1:10,000 in MHB medium and incubated at 37 ℃, 200 rpm for 2 hours to reach the early exponential.
# Then, massatide A or vancomycin was added to the culture at the concentration of 10×MIC. Bacteria were still cultivated at 37 ℃, 200 rpm. Culture with no antibiotics was used as a negative control. 10 μL aliquots were removed at intervals, centrifuged, and resuspended in 1 ml PBS. Serially diluted (10-fold) suspensions were plated on MHB agar and incubated at 37 ℃ overnight for counting of colony-forming units.
# as §2
smiles,measurement,setting,value
"C=C1NC(=O)C(NC(=O)/C(=C/C)NC(=O)[C@H](CCCNC(=N)N)NC(=O)[C@@H](C)NC(=O)[C@@H](NC(=O)[C@H](C)NC(=O)[C@@H](NC(=O)[C@@H](C)NC(=O)[C@H](C)NC(=O)[C@@H]2CSC(C)C(N(C)C)C(=O)N/C(=C\C)C(=O)N[C@@H](Cc3ccc(O)cc3)C(=O)N[C@@H]([C@@H](C)CC)C(=O)N2)C(C)C)[C@@H](C)CC)CSC[C@@H](C(=O)N[C@H](C)C(=O)N[C@@H](C)C(=O)N[C@@H](C)C(=O)N[C@@H](C)C(=O)N[C@H](C)C(=O)N[C@@H](C)C(=O)N[C@H](C(=O)N[C@H](C)C(=O)NCC(=O)N[C@@H](C)C(=O)NC2C(=O)N[C@@H](Cc3ccc(O)cc3)C(=O)N[C@@H](CCC(=O)O)C(=O)N[C@@H](Cc3c[nH]c4ccccc34)C(=O)N[C@@H]([C@@H](C)O)C(=O)N/C=C\SC2C)[C@@H](C)CC)NC(=O)[C@H](CCCCN)NC(=O)[C@H](C(C)C)NC1=O (stereo partly shown) [Sistertide A1 (2), sistertide A1]",inhibitory activity (zone of inhibition),[1],did not display significant inhibitory activity
same,MIC,[2],>64 µg/mL
same,MIC,[3],>64 µg/mL
same,MIC,"Bacillus subtilis 168; 168, 20 h",>64 µg/mL
same,MIC,[4],>64 µg/mL
same,MIC,[5],>64 µg/mL
same,MIC,[6],>64 µg/mL
same,MIC,Escherichia coli DH5α,>64 µg/mL
"CN[C@H](CC(C)C)C(=O)N[C@H]1C(=O)N[C@@H](CC(N)=O)C(=O)N[C@H]2C(=O)N[C@H]3C(=O)N[C@H](C(=O)N[C@H](C(=O)O)c4cc(O)cc(O)c4-c4cc3ccc4O)[C@H](O)c3ccc(c(Cl)c3)Oc3cc2cc(c3O[C@@H]2O[C@H](CO)[C@@H](O)[C@H](O)[C@H]2O[C@H]2C[C@](C)(N)[C@H](O)[C@H](C)O2)Oc2ccc(cc2Cl)[C@H]1O [Vancomycin, reference compound]",lysis of the cell culture,S. aureus ATCC 25923 [7],the same as vancomycin
same,shift of MIC during serial passaging,S. aureus ATCC 25923 [8],absence of a shift
same,log(CFU/mL),"S. aureus ATCC 25923 [9]; time 0 h, log of mean of 3 replicates",6.907 log(CFU/mL)
same,CFU/mL,"S. aureus ATCC 25923 [9]; time 0 h, mean of 3 replicates",8080000 CFU/mL
same,CFU/mL,"S. aureus ATCC 25923 [9]; time 0 h, replicate 1",8440000 CFU/mL
same,log(CFU/mL),"S. aureus ATCC 25923 [9]; time 0 h, replicate 1",6.926 log(CFU/mL)
same,CFU/mL,"S. aureus ATCC 25923 [9]; time 0 h, replicate 2",8020000 CFU/mL
same,log(CFU/mL),"S. aureus ATCC 25923 [9]; time 0 h, replicate 2",6.904 log(CFU/mL)
same,CFU/mL,"S. aureus ATCC 25923 [9]; time 0 h, replicate 3",7780000 CFU/mL
same,log(CFU/mL),"S. aureus ATCC 25923 [9]; time 0 h, replicate 3",6.891 log(CFU/mL)
same,log(CFU/mL),"S. aureus ATCC 25923 [9]; time 1 h, log of mean of 3 replicates",6.695 log(CFU/mL)
same,CFU/mL,"S. aureus ATCC 25923 [9]; time 1 h, mean of 3 replicates",4950000 CFU/mL
same,CFU/mL,"S. aureus ATCC 25923 [9]; time 1 h, replicate 1",5360000 CFU/mL
same,log(CFU/mL),"S. aureus ATCC 25923 [9]; time 1 h, replicate 1",6.729 log(CFU/mL)
same,CFU/mL,"S. aureus ATCC 25923 [9]; time 1 h, replicate 2",5200000 CFU/mL
same,log(CFU/mL),"S. aureus ATCC 25923 [9]; time 1 h, replicate 2",6.716 log(CFU/mL)
same,CFU/mL,"S. aureus ATCC 25923 [9]; time 1 h, replicate 3",4290000 CFU/mL
same,log(CFU/mL),"S. aureus ATCC 25923 [9]; time 1 h, replicate 3",6.632 log(CFU/mL)
same,log(CFU/mL),"S. aureus ATCC 25923 [9]; time 3 h, log of mean of 3 replicates",6.685 log(CFU/mL)
same,CFU/mL,"S. aureus ATCC 25923 [9]; time 3 h, mean of 3 replicates",4836667 CFU/mL
same,CFU/mL,"S. aureus ATCC 25923 [9]; time 3 h, replicate 1",4940000 CFU/mL
same,log(CFU/mL),"S. aureus ATCC 25923 [9]; time 3 h, replicate 1",6.694 log(CFU/mL)
same,CFU/mL,"S. aureus ATCC 25923 [9]; time 3 h, replicate 2",4850000 CFU/mL
same,log(CFU/mL),"S. aureus ATCC 25923 [9]; time 3 h, replicate 2",6.686 log(CFU/mL)
same,CFU/mL,"S. aureus ATCC 25923 [9]; time 3 h, replicate 3",4720000 CFU/mL
same,log(CFU/mL),"S. aureus ATCC 25923 [9]; time 3 h, replicate 3",6.674 log(CFU/mL)
same,log(CFU/mL),"S. aureus ATCC 25923 [9]; time 7 h, log of mean of 3 replicates",5.899 log(CFU/mL)
same,CFU/mL,"S. aureus ATCC 25923 [9]; time 7 h, mean of 3 replicates",791667 CFU/mL
same,CFU/mL,"S. aureus ATCC 25923 [9]; time 7 h, replicate 1",695000 CFU/mL
same,log(CFU/mL),"S. aureus ATCC 25923 [9]; time 7 h, replicate 1",5.842 log(CFU/mL)
same,CFU/mL,"S. aureus ATCC 25923 [9]; time 7 h, replicate 2",770000 CFU/mL
same,log(CFU/mL),"S. aureus ATCC 25923 [9]; time 7 h, replicate 2",5.886 log(CFU/mL)
same,CFU/mL,"S. aureus ATCC 25923 [9]; time 7 h, replicate 3",910000 CFU/mL
same,log(CFU/mL),"S. aureus ATCC 25923 [9]; time 7 h, replicate 3",5.959 log(CFU/mL)
same,log(CFU/mL),"S. aureus ATCC 25923 [9]; time 26 h, log of mean of 3 replicates",3.724 log(CFU/mL)
same,CFU/mL,"S. aureus ATCC 25923 [9]; time 26 h, mean of 3 replicates",5300 CFU/mL
same,CFU/mL,"S. aureus ATCC 25923 [9]; time 26 h, replicate 1",5500 CFU/mL
same,log(CFU/mL),"S. aureus ATCC 25923 [9]; time 26 h, replicate 1",3.74 log(CFU/mL)
same,CFU/mL,"S. aureus ATCC 25923 [9]; time 26 h, replicate 2",5400 CFU/mL
same,log(CFU/mL),"S. aureus ATCC 25923 [9]; time 26 h, replicate 2",3.732 log(CFU/mL)
same,CFU/mL,"S. aureus ATCC 25923 [9]; time 26 h, replicate 3",5000 CFU/mL
same,log(CFU/mL),"S. aureus ATCC 25923 [9]; time 26 h, replicate 3",3.699 log(CFU/mL)
same,MIC,[2]; Staphylococcus aureus,1 µg/mL
same,MIC,[3]; Enterococcus faecium,1 µg/mL
same,MIC,"Bacillus subtilis 168; Bacillus subtilis, 168, 20 h",0.125 µg/mL
same,MIC,[4]; Micrococcus luteus,0.125 µg/mL
same,MIC,[5]; Enterococcus faecalis,2 µg/mL
